ChEMBL document CHEMBL1131676, “The discovery of orally available thrombin inhibitors: optimisation of the P1 pharmacophore” (Bioorg Med Chem Lett, 1999)

Experiments:
[1] = Effect on doubling of human clotting time assay expressed as Activated partial thromboplastin time value (APTT); type: functional
Prothrombin = Prothrombin (Homo sapiens, UniProt P00734); test: Binding affinity to human thrombin

Row | SMILES | Ki (Prothrombin) [nM] | APTT [1] [µM]
1 | O=C([C@@H](NS(=O)(=O)c1cnccc1N[C@H](CO)Cc1ccccc1)C1CCCCC1)N1CCC(CCF)CC1 | 11800 | –
2 | NCCCC[C@H](NS(=O)(=O)c1cnccc1N[C@H](CO)Cc1ccccc1)C(=O)N1CCC(CCF)CC1 | 1800 | –
3 | CC(C)C[C@H](NS(=O)(=O)c1cnccc1N[C@H](CO)Cc1ccccc1)C(=O)N1CCC(CCF)CC1 | 11900 | –
4 | CNc1ccc([C@H](NS(=O)(=O)c2cnccc2N[C@H](CO)Cc2ccccc2)C(=O)N2CCC(CCF)CC2)cc1 | 12 | 4.08
5 | C[C@H](NS(=O)(=O)c1cnccc1N[C@H](CO)Cc1ccccc1)C(=O)N1CCC(CCF)CC1 | 49900 | –
6 | CC(C)[C@H](NS(=O)(=O)c1cnccc1N[C@H](CO)Cc1ccccc1)C(=O)N1CCC(CCF)CC1 | 6510 | –
7 | O=C([C@H](Cc1cccnc1)NS(=O)(=O)c1cnccc1N[C@H](CO)Cc1ccccc1)N1CCC(CCF)CC1 | 1610 | 20.33
8 | N=C(N)NCC[C@H](NS(=O)(=O)c1cnccc1N[C@H](CO)Cc1ccccc1)C(=O)N1CCC(CCF)CC1 | 16 | 0.75

More lines, main results first:

Row | Ki (Prothrombin) [nM] | SMILES | APTT [1] [µM]
9 | 280 | O=C([C@H](Cc1cscn1)NS(=O)(=O)c1cnccc1N[C@H](CO)Cc1ccccc1)N1CCC(CCF)CC1 | 9.17
10 | 26 | Nc1cc(C[C@H](NS(=O)(=O)c2cnccc2N[C@H](CO)Cc2ccccc2)C(=O)N2CCC(CCF)CC2)ccc1O | 1.53
11 | 1540 | O=C([C@@H](NS(=O)(=O)c1cnccc1N[C@H](CO)Cc1ccccc1)c1ccncc1)N1CCC(CCF)CC1 | –
12 | 41 | O=C([C@H](Cc1ccc(O)cc1)NS(=O)(=O)c1cnccc1N[C@H](CO)Cc1ccccc1)N1CCC(CCF)CC1 | 1.91
13 | 82 | O=C([C@H](Cc1ccc(O)c(O)c1)NS(=O)(=O)c1cnccc1N[C@H](CO)Cc1ccccc1)N1CCC(CCF)CC1 | 6.17
14 | 575 | CCNc1ccc(C[C@H](NS(=O)(=O)c2cnccc2N[C@H](CO)Cc2ccccc2)C(=O)N2CCC(CCF)CC2)cc1 | 17.4
15 | 43 | O=C([C@H](Cc1ccc2c(c1)OCO2)NS(=O)(=O)c1cnccc1N[C@H](CO)Cc1ccccc1)N1CCC(CCF)CC1 | 6.39
16 | 36 | COc1ccc(C[C@H](NS(=O)(=O)c2cnccc2N[C@H](CO)Cc2ccccc2)C(=O)N2CCC(CCF)CC2)cc1 | 8.013
17 | 100 | O=C([C@H](Cc1ccccc1)NS(=O)(=O)c1cnccc1N[C@H](CO)Cc1ccccc1)N1CCC(CCF)CC1 | 11
18 | 69 | O=C([C@H](Cc1ccc2ccccc2c1)NS(=O)(=O)c1cnccc1N[C@H](CO)Cc1ccccc1)N1CCC(CCF)CC1 | 26
19 | 81 | O=C([C@H](Cc1ccccn1)NS(=O)(=O)c1cnccc1N[C@H](CO)Cc1ccccc1)N1CCC(CCF)CC1 | 3.87
